What was measured:
Format in all cases: functional
[1] = tested on: Staphylococcus aureus; assay: Antimicrobial activity against epidemic methicillin-resistant Staphylococcus aureus NCTC 13142 at 5 ug/disk after 18 to 20 hrs by disk diffusion assay; conditions: read-out: IZ
[2] = tested on: Escherichia coli; assay: Antimicrobial activity against ciprofloxacin-resistant Escherichia coli BIG 0051 at 5 ug/disk after 18 to 20 hrs by disk diffusion assay; conditions: read-out: IZ
[3] = tested on: Staphylococcus aureus; assay: Antimicrobial activity against ciprofloxacin and epidemic methicillin-resistant Staphylococcus aureus BIG 0052 at 5 ug/disk after 18 to 20 hrs by disk diffusion assay; conditions: read-out: IZ
[4] = tested on: Staphylococcus aureus; assay: Antimicrobial activity against ciprofloxacin and methicillin-resistant Staphylococcus aureus HG-1 at 5 ug/disk after 18 to 20 hrs by disk diffusion assay; conditions: read-out: IZ
[5] = tested on: Staphylococcus aureus; assay: Antimicrobial activity against ciprofloxacin and epidemic methicillin-resistant Staphylococcus aureus NCTC 13143 at 5 ug/disk after 18 to 20 hrs by disk diffusion assay; conditions: read-out: IZ
[6] = tested on: Escherichia coli; assay: Antimicrobial activity against ciprofloxacin-resistant Escherichia coli BIG 0046 at 5 ug/disk after 18 to 20 hrs by disk diffusion assay; conditions: read-out: IZ
[7] = tested on: Staphylococcus epidermidis; assay: Antimicrobial activity against Staphylococcus epidermidis NCTC 2749 at 5 ug/disk after 18 to 20 hrs by disk diffusion assay; conditions: read-out: IZ
[8] = tested on: Burkholderia cepacia; assay: Antimicrobial activity against Burkholderia cepacia NCTC 10744 at 5 ug/disk after 18 to 20 hrs by disk diffusion assay; conditions: read-out: IZ
[9] = tested on: Staphylococcus haemolyticus; assay: Antimicrobial activity against Staphylococcus haemolyticus NCTC 11042 at 5 ug/disk after 18 to 20 hrs by disk diffusion assay; conditions: read-out: IZ
[10] = tested on: Serratia marcescens; assay: Antimicrobial activity against Serratia marcescens NCTC 1377 at 5 ug/disk after 18 to 20 hrs by disk diffusion assay; conditions: read-out: IZ
[11] = tested on: Pseudomonas aeruginosa; assay: Antimicrobial activity against Pseudomonas aeruginosa NCTC 10662 at 5 ug/disk after 18 to 20 hrs by disk diffusion assay; conditions: read-out: IZ
[12] = tested on: Staphylococcus aureus; assay: Antimicrobial activity against Staphylococcus aureus NCTC 10399 at 5 ug/disk after 18 to 20 hrs by disk diffusion assay; conditions: read-out: IZ
[13] = tested on: Escherichia coli; assay: Antimicrobial activity against Escherichia coli NCTC 10418 at 5 ug/disk after 18 to 20 hrs by disk diffusion assay; conditions: read-out: IZ
[14] = tested on: Pseudomonas aeruginosa; assay: Antimicrobial activity against Pseudomonas aeruginosa BIG 0063 at 5 ug/disk after 18 to 20 hrs by disk diffusion assay; conditions: read-out: IZ
[15] = tested on: Staphylococcus aureus; assay: Antimicrobial activity against Staphylococcus aureus NCTC 6571 at 5 ug/disk after 18 to 20 hrs by disk diffusion assay; conditions: read-out: IZ
[16] = tested on: Pseudomonas aeruginosa; assay: Antimicrobial activity against Pseudomonas aeruginosa NCTC 6749 at 5 ug/disk after 18 to 20 hrs by disk diffusion assay; conditions: read-out: IZ
[17] = tested on: Staphylococcus epidermidis; assay: Antimicrobial activity against Staphylococcus epidermidis NCTC 11047 at 5 ug/disk after 18 to 20 hrs by disk diffusion assay; conditions: read-out: IZ
[18] = tested on: Pseudomonas aeruginosa; assay: Antimicrobial activity against Pseudomonas aeruginosa BIG 0039 at 5 ug/disk after 18 to 20 hrs by disk diffusion assay; conditions: read-out: IZ
[19] = tested on: Pseudomonas aeruginosa; assay: Antimicrobial activity against Pseudomonas aeruginosa BIG 0037 at 5 ug/disk after 18 to 20 hrs by disk diffusion assay; conditions: read-out: IZ
[20] = tested on: Escherichia coli; assay: Antimicrobial activity against wild-type Escherichia coli K-12 BW-25113 at 0.15 ug after overnight incubation in presence of 1000 uM Fe3-cation
[21] = tested on: Escherichia coli; assay: Antimicrobial activity against isogenic Escherichia coli K-12 […] mutant at 0.15 ug after overnight incubation in presence of 1 uM Fe3-cation
[22] = tested on: Escherichia coli; assay: Antimicrobial activity against wild-type Escherichia coli K-12 BW-25113 at 0.15 ug after overnight incubation in presence of 1 uM Fe3-cation
[23] = tested on: Escherichia coli; assay: Antimicrobial activity against isogenic Escherichia coli K-12 […] mutant at 0.15 ug after overnight incubation in presence of 1000 uM Fe3-cation

O=C(O)c1cn(C2CC2)c2cc(N3CCNCC3)c(F)cc2c1=O [CIPROFLOXACIN] gave a zone of inhibition at 5 µg/disc [1] of 22 mm, a zone of inhibition at 5 µg/disc [2] of 0 mm and a zone of inhibition at 5 µg/disc [3] of 0 mm. The zone of inhibition at 5 µg/disc [4] was 0 mm, the zone of inhibition at 5 µg/disc [5] was 0 mm and the zone of inhibition at 5 µg/disc [6] was 0 mm. For the same molecule, the zone of inhibition at 5 µg/disc [7] was 29 mm, the zone of inhibition at 5 µg/disc [8] was 22 mm and the zone of inhibition at 5 µg/disc [9] was 25 mm. It also gave a zone of inhibition at 5 µg/disc [10] of 30 mm, a zone of inhibition at 5 µg/disc [11] of 31 mm and a zone of inhibition at 5 µg/disc [12] of 27 mm. For the same molecule, the zone of inhibition at 5 µg/disc [13] was 32 mm, the zone of inhibition at 5 µg/disc [14] was 32 mm and the zone of inhibition at 5 µg/disc [15] was 24 mm. The zone of inhibition at 5 µg/disc [16] was 35 mm, the zone of inhibition at 5 µg/disc [17] was 25 mm and the zone of inhibition at 5 µg/disc [18] was 27 mm. It also gave a zone of inhibition at 5 µg/disc [19] of 31 mm.

For O=C(O)CC(O)(CC(=O)N1CCN(c2cc3c(cc2F)c(=O)c(C(=O)O)cn3C2CC2)CC1)C(=O)O (centres undefined), the zone of inhibition at 5 µg/disc [2] was 0 mm, the zone of inhibition at 5 µg/disc [3] was 0 mm and the zone of inhibition at 5 µg/disc [4] was 0 mm. The “inhibition zone (IZ)” value [20] was 1.3 cm, the zone of inhibition at 5 µg/disc [6] was 0 mm and the zone of inhibition at 5 µg/disc [7] was 28 mm. It also gave a zone of inhibition at 5 µg/disc [8] of 18 mm, a zone of inhibition at 5 µg/disc [9] of 30 mm and a zone of inhibition at 5 µg/disc [11] of 23 mm. The “inhibition zone (IZ)” value [21] was 0.6 cm, the zone of inhibition at 5 µg/disc [12] was 20 mm and the “inhibition zone (IZ)” value [22] was 1.1 cm. The “inhibition zone (IZ)” value [23] was 0.8 cm, the zone of inhibition at 5 µg/disc [13] was 30 mm and the zone of inhibition at 5 µg/disc [15] was 17 mm. For the same molecule, the zone of inhibition at 5 µg/disc [16] was 23 mm, the zone of inhibition at 5 µg/disc [17] was 28 mm and the zone of inhibition at 5 µg/disc [18] was 18 mm. The zone of inhibition at 5 µg/disc [19] was 25 mm.

O=C(O)CC(O)(CC(=O)O)C(=O)N1CCN(c2cc3c(cc2F)c(=O)c(C(=O)O)cn3C2CC2)CC1 was tested, and the zone of inhibition at 5 µg/disc [1] was 21 mm, the zone of inhibition at 5 µg/disc [2] was 0 mm and the zone of inhibition at 5 µg/disc [3] was 0 mm. The zone of inhibition at 5 µg/disc [4] was 0 mm, the zone of inhibition at 5 µg/disc [5] was 0 mm and the zone of inhibition at 5 µg/disc [6] was 0 mm. For the same molecule, the zone of inhibition at 5 µg/disc [7] was 24 mm, the zone of inhibition at 5 µg/disc [8] was 18 mm and the zone of inhibition at 5 µg/disc [9] was 20 mm. It also gave a zone of inhibition at 5 µg/disc [10] of 25 mm, a zone of inhibition at 5 µg/disc [12] of 23 mm and a zone of inhibition at 5 µg/disc [13] of 27 mm. It also gave a zone of inhibition at 5 µg/disc [14] of 24 mm, a zone of inhibition at 5 µg/disc [15] of 20 mm and a zone of inhibition at 5 µg/disc [17] of 21 mm. The zone of inhibition at 5 µg/disc [19] was 24 mm.

Source: ChEMBL document CHEMBL1152871, “Synthesis of citrate-ciprofloxacin conjugates” (2009)
